Results from patent US20240360091A1, “GLUN2B-SUBUNIT SELECTIVE ANTAGONISTS OF THE N-METHYL-D-ASPARTATE RECEPTORS WITH ENHANCED POTENCY AT ACIDIC PH” (Emory University, priority 2021, published 2024).
Read-outs that look alike come from different tables or passages of the source.

Legend:
[1] = biological target: human GluN1/GluN2B (Homo sapiens (Human), UniProt Q05586+Q13224); assay: Two electrode voltage-clamp recordings from Xenopus laevis oocytes, GluN2B potency and pH dependence; type: cell-based
Description: Two Electrode Voltage-Clamp Recordings from Xenopus laevis Oocytes
Stage V-VI Xenopus laevis unfertilized oocytes were purchased from Ecocyte (Austin, Texas) and injected with 5 ng of GluN1 and 10 ng of GluN2B cRNAs. The cDNAs for human GluN1 and GluN2B, encoding NCBI reference sequences NM_007327.3 and NM_000834.3, respectively, were linearized and cRNAs made as previously described (Traynelis et al., J Neurosci, 1998, 18(16):6163-75). After injection, the oocytes were incubated in Barth's culture solution (88 mM NaCl, 1 mM KCl, 2.4 mM NaHCO3, 10 mM HEPES, 0.82 mM MgSO4, 0.33 mM Ca(NO3)2, 0.41 mM CaCl2), 10 U/mL PenStrep, and 0.1 mg/mL gentamycin, pH 7.4) at 18° C. Two electrode voltage-clamp (TEVC) recordings were made at 22-23° C., 2-7 days after the injection, using Warner OC725C amplifiers (VHOLD=−40 mV). Briefly, the oocytes were perfused in a recording solution (90 mM NaCl, 1 mM KCl, 10 mM HEPES, 0.01 mM EDTA, and 0.5 mM BaCl2) adjusted to either pH 7.6 or 6.9 by addition of NaOH or HCl, respectively (pH 6.9 solutions were prepared by addition of HCl to pH 7.6 solutions to maintain an equal concentration of Na^+ ions in both solutions). Concentration-response curves of the compounds were obtained by application of increasing concentrations of each individual compound until steady state conditions were obtained, in the presence of saturating agonist concentrations (i.e., 100 μM glutamate and 30 μM glycine). In general, oocyte recordings were made from 4-10 oocytes per experiment (i.e., oocyte injection cycle) from ≥two experiments. The concentration-response relationship for each oocyte was fit by equation (1),
Percent Response=(100−minimum)/(1+([concentration]/IC50)^nH)+minimum (1)
where minimum is the residual response in saturating concentration of each individual compound (constrained to be ≥0), and IC50 is the concentration of compound that causes half-maximal inhibition, and nH is the Hill slope.

[2] = biological target: GluN2A (Homo sapiens (Human), UniProt Q12879); assay: Two electrode voltage-clamp recordings, single concentration, GluN2A; type: cell-based; settings: pH 6.9
[3] = biological target: GluN2C (Homo sapiens (Human), UniProt Q14957); assay: Two electrode voltage-clamp recordings, single concentration, GluN2C; type: cell-based; settings: pH 6.9
[4] = biological target: GluN2D (Homo sapiens (Human), UniProt O15399); assay: Two electrode voltage-clamp recordings, single concentration, GluN2D; type: cell-based; settings: pH 6.9
[5] = biological target: CYP3A4 (Homo sapiens (Human), UniProt P08684); assay: Cytochrome P450 inhibition (Vivid CYP blue screening kit), CYP3A4; type: in vitro ADME; settings: 1 μM
Description: (§1) Inhibition of CYP2D6 and CYP3A4 was accomplished using recombinant human isoforms and a Vivid CYP blue screening kit (Invitrogen, USA) by incubating 2-fold serial dilutions (9 samples) of the test compound with kit reagents and reaction buffer according to the manufacturer's methods in a 96-well plate. The plate was then incubated at room temperature for 30 min before fluorescence was measured with a plate reader. For these studies, reference standards ketoconazole (CYP3A4) and quinidine (CYP2D6) were used as controls.

[6] = biological target: CYP2D6 (Homo sapiens (Human), UniProt P10635); assay: Cytochrome P450 inhibition (Vivid CYP blue screening kit), CYP2D6; type: in vitro ADME; settings: 1 μM
Description: as §1

[7] = Plasma protein binding, rapid equilibrium dialysis, mouse; type: in vitro ADME; settings: n=2
Description: Plasma protein binding was performed with a rapid equilibrium dialysis (RED) device containing dialysis membrane with a molecular weight cut-off of 8,000 Daltons according to the manufacturer's instructions (ThermoFisher, USA). The plasma samples (pH 7.4) and the test compound solution (1 or 5 μM) or reference standards (Warfarin and Propranolol, 10 μM) were combined (DMSO final conc 0.1%). 300 μL of this spiked plasma sample was added to the sample chamber, and 500 μL of blank PBS buffer (pH 7.4) was added into the buffer chamber. The RED device was sealed with adhesive film and then incubated at 37° C. with shaking at 300 rpm for 4 h. Following incubation, an aliquot (50 μL) was removed from each well (spiked plasma and buffer side) and diluted with equal volume of the corresponding opposite matrix (blank buffer or blank plasma) to nullify the matrix effect, and then extracted for analysis by LC-MS/MS. The amount of free material was determined by:
% Free=(LC-MS/MS peak area of test compound in buffer side/LC-MS/MS peak area of test compound in plasma side)×100%

[8] = biological target: 5-HT1B (Homo sapiens (Human), UniProt P28222); assay: Off-target radioligand binding displacement (NIMH PDSP); settings: pH 7.4
Description: (§2) Briefly, the compound was submitted to the NIMH PDSP and screened at a single concentration (10 μM) of test article under equilibrium conditions for ability to displace specific radioligands from binding to their targets expressed in mammalian cell membranes in vitro. Each receptor target was assayed in quadruplicate and the % inhibition of radioligand binding at each target determined at pH 7.4. […]

[9] = biological target: 5-HT1D (Homo sapiens (Human), UniProt P28221); assay: as above; settings: pH 7.4
Description: as §2

[10] = biological target: 5-HT2B (Homo sapiens (Human), UniProt P41595); assay: biochemical
Description: as §2

[11] = % current remaining after 3 μM compound

Chain of human GluN1/GluN2B (Q13224 27-1484, other chains not shown): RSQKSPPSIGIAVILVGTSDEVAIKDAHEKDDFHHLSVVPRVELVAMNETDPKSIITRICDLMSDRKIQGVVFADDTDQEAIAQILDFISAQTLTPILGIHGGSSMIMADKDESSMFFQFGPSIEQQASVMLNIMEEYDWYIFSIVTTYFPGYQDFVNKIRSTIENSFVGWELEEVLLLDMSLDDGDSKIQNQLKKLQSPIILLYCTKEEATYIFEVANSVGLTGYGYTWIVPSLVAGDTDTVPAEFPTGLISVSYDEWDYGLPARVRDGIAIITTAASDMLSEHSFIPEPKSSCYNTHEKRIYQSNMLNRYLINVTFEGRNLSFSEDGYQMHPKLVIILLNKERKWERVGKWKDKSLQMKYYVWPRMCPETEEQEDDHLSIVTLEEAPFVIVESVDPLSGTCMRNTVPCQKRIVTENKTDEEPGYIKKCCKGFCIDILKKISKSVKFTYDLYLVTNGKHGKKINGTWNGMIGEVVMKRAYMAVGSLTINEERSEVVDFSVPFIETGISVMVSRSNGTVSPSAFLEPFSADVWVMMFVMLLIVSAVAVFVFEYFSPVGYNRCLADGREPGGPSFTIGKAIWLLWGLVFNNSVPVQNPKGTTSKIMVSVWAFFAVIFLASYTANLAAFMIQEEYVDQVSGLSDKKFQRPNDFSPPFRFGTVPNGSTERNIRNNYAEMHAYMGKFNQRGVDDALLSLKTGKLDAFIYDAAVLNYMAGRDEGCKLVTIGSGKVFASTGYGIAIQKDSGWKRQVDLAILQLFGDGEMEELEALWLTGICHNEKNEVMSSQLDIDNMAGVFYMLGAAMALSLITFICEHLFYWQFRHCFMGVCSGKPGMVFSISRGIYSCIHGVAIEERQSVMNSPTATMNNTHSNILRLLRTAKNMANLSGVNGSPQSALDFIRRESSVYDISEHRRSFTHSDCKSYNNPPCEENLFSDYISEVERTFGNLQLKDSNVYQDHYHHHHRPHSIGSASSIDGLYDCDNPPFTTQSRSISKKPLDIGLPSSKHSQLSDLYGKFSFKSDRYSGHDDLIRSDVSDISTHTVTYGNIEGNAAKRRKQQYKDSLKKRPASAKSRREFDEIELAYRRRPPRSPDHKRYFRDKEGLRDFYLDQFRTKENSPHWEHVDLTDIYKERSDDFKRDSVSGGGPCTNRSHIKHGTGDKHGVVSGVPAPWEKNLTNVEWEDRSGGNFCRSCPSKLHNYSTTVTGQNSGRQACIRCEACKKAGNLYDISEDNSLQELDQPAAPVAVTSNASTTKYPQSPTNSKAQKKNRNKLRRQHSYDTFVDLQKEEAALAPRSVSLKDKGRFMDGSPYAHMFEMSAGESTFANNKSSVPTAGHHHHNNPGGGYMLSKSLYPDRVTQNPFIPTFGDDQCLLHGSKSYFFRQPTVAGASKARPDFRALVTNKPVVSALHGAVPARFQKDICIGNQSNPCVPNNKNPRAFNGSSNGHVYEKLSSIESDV
Chain of GluN2D (O15399 28-1336, other chains not shown): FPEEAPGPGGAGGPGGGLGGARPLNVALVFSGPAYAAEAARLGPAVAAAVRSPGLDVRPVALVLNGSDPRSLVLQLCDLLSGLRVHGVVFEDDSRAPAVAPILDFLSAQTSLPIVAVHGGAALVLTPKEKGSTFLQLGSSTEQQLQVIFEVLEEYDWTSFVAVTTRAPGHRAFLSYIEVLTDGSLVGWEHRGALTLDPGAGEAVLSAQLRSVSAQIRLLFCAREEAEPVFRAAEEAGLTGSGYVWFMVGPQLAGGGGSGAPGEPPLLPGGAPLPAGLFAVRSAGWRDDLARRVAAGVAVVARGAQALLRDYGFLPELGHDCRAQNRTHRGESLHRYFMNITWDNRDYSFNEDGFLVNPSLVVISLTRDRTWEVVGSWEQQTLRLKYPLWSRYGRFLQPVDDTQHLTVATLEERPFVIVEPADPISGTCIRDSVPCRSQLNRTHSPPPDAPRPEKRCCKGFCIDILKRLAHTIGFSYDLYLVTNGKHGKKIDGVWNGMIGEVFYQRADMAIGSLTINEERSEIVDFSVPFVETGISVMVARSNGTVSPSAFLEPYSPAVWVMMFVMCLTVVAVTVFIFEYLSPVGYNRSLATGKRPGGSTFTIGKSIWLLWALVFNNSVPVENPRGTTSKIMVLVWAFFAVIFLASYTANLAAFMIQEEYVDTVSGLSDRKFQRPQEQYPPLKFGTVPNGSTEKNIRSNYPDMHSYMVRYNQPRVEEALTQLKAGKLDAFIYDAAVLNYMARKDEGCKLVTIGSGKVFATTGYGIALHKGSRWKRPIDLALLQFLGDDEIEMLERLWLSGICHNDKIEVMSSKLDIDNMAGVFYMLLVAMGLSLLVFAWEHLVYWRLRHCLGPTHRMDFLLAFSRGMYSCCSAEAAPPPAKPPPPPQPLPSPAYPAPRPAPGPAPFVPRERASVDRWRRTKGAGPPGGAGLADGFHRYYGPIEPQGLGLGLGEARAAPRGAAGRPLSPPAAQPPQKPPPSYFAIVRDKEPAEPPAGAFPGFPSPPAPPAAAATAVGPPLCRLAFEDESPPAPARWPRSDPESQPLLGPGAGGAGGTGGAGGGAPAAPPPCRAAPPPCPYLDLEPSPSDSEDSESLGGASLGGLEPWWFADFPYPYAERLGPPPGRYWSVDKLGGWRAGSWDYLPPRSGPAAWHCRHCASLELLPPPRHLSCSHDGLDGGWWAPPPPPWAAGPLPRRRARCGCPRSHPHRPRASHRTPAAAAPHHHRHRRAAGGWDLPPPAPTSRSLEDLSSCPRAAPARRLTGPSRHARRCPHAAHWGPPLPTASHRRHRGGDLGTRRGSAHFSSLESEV
Chain of GluN2C (Q14957 20-1233, other chains not shown): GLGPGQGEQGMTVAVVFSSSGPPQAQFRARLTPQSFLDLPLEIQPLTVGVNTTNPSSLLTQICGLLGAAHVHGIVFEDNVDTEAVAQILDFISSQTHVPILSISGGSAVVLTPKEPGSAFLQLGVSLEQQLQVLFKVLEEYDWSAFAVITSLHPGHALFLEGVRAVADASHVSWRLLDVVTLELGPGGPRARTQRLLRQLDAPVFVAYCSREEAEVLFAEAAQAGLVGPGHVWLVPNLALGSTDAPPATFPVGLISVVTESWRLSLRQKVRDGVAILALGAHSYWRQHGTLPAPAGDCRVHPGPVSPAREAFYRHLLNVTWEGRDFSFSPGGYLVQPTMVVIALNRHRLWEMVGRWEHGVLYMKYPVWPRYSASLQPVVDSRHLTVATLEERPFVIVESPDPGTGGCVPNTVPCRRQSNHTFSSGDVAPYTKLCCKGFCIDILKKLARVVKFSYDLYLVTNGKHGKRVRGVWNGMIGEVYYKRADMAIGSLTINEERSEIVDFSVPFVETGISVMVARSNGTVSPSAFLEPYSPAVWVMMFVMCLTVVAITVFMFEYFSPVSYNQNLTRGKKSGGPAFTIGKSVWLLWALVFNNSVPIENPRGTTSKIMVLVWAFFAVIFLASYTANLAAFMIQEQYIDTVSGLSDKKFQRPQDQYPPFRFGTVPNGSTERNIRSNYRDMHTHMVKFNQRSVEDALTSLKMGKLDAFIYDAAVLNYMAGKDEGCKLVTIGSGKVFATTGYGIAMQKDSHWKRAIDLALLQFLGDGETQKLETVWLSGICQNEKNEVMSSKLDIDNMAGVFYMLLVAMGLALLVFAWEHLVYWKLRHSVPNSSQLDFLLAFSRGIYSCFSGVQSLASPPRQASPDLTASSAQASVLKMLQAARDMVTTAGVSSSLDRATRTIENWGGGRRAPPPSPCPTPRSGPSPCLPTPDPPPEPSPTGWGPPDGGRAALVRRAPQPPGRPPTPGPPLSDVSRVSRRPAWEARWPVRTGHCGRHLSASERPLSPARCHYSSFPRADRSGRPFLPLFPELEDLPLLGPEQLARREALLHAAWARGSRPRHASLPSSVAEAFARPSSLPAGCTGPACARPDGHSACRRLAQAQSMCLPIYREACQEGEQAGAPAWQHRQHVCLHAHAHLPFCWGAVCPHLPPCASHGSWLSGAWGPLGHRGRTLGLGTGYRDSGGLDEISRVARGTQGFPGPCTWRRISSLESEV
Chain of 5-HT2B (P41595 whole entry, species assumed): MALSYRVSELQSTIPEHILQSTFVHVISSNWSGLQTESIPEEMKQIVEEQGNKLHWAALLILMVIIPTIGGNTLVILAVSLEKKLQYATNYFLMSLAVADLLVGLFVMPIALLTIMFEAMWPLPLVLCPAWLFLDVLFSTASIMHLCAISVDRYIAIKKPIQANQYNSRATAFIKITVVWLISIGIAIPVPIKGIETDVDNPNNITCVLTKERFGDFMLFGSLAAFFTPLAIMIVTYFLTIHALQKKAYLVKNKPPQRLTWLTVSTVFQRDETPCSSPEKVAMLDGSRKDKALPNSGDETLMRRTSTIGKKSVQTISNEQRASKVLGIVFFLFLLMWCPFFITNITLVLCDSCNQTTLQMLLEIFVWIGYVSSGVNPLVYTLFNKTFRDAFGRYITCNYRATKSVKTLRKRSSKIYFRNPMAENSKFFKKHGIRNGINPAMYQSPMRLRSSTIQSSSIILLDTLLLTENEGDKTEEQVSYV
Chain of 5-HT1D (P28221 whole entry, species assumed): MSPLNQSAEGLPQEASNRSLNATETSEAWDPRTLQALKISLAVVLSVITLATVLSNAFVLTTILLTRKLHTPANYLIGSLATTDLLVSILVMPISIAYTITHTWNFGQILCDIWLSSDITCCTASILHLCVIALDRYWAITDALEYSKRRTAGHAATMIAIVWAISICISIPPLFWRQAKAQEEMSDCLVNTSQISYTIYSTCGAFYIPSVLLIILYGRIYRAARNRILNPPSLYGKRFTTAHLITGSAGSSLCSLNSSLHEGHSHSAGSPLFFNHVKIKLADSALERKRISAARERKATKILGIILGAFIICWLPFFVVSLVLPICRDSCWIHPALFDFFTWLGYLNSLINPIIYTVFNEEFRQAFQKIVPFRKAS

IC50 ([1]; pH 6.9, read-out: IC50 (μM) pH 6.9): 0.023 µM | IC50 ([1]; pH 6.9, read-out: IC50 value at pH 6.9): 0.023 µM | IC50 ([1]; pH 7.6, read-out: IC50 (μM) pH 7.6): 0.142 µM | IC50 ([1]; pH 7.6, read-out: IC50 value at pH 7.6): 0.142 µM | pH Boost ([1]; ratio of IC50 at pH 7.6 to IC50 at pH 6.9): 6.2 | off-target inhibition against GluN2A ([2]; 3 μM): no noticeable off-target inhibition | GluN2A % residual [2, 11]: 99.0 (pH 6.9) % | off-target inhibition against GluN2C ([3]; 3 μM): no noticeable off-target inhibition | GluN2C % residual [3, 11]: 100.1 (pH 6.9) % | off-target inhibition against GluN2D ([4]; 3 μM): no noticeable off-target inhibition | GluN2D % residual [4, 11]: 98.3 (pH 6.9) % | inhibition of CYP3A4 [5]: did not inhibit | inhibition of CYP2D6 [6]: did not inhibit | bound to mouse plasma proteins [7]: 98.2% | Ki [8]: > 10 µM | Ki [9]: 2.29 µM | Ki [10]: 1.92 µM
Structure (SMILES): O=C1CCc2cc(OC[C@H](O)CN3CCN(c4ccc(C(F)(F)F)cc4)CC3)ccc2N1 [NP10679]
